Drawing on paper PMC7215781 (International Journal of Molecular Sciences, 2020), this text covers K0.5 for one molecule.

The test deals with T1, purified Na,K-ATPase from lamb kidney (α1) (Ovis aries, UniProt P04074).
T1 construct: gene ATP1A1; native enzyme purified from lamb kidney (gift of W. Ball); with Sodium/potassium-transporting ATPase subunit beta-1
Briefly: coupled pyruvate kinase/lactate dehydrogenase ATPase assay, NADH absorbance at […] nm, Hill fit. It is filed as biochemical. As to conditions: inhibition; 3 h incubation in K+-free solution; 5 mM ATP, 100 mM NaCl, 10 mM MgCl2; pH 7.3; 37 °C.

Turning to `C[C@@H]1O[C@@H](O[C@H]2C[C@@H](O)[C@]3(CO)[C@H]4[C@H](O)C[C@]5(C)[C@@H](C6=CC(=O)OC6)CC[C@]5(O)[C@@H]4CC[C@]3(O)C2)[C@H](O)[C@H](O)[C@H]1O` [ouabain], the K0.5 is 157 ± 7 nM.
